From US9364564B2, “Pre-mixed, ready-to-use pharmaceutical compositions” (EKR Therapeutics, Inc., priority 2006, dated 2016)
Where a name gives a salt, the structure may show the parent alone.

Key:
[1] = cited from earlier work
[2] = Stability of concentrated ampul product after dilution with intravenous infusion fluids; assay type: physicochemical; settings: diluted to 0.1 mg/ml in IV bag, 24 hours, final pH above 4.5
Experimental: Stability results for the concentrated ampul product diluted to 0.1 mg/ml with various commonly used intravenous infusion fluids in an IV bag are shown in FIG. 1. pH after mixing was measured and is reported on the X-axis. Product stability was measured by monitoring the % drug remaining after duration of 24 hours by RP-HPLC and is shown on the Y-axis.

[3] = Effect of plastic film composition (IV bag type) on stability at 40° C.; assay type: physicochemical; settings: bags containing PVC (VIAFLEX, INTRAVIA), 0.2 mg/mL non-sorbitol dextrose formulation
Experimental: The effect of plastic film composition on the stability of ready to use premixed compositions comprising 0.2 mg/mL nicardipine HCl, 0.2 mM citrate, 5% dextrose, pH 4.0-4.2 for “incompatible” bags and “compatible” bags is shown in FIGS. 5A and 5B respectively. “Incompatible” bags contain polar polymers, such as polyvinyl chloride (PVC) and ethylene vinyl acetate (EVA). […] Stability evaluations were done for the 0.2 mg/mL non-sorbitol dextrose formulation in various commercially available IV infusion bag systems. […]®, and VISIV® bags were rinsed in water and covered with aluminum foil over pouches. The bags were filled with the above formulation and autoclaved at 105° C. for 21 minutes. […]®71 and GALAXY® bags were aseptically filled with the above formulation. Stability assessments were done by measuring the % drug remaining and total impurity formation (data not shown) as a function of time using RP-HPLC for samples incubated for up to 24 weeks at 40° C. The % drug remaining was calculated relative to the concentration measured post-mixing in tank.

[4] = weak base; cited from earlier work

Row | Structure (SMILES) | solubility in water [1] | drug loss post dilution [2] | loss in product potency upon storage [3] | pKa [4]
1 | COC(=O)C1=C(C)NC(C)=C(C(=O)OCCN(C)Cc2ccccc2)C1c1cccc([N+](=O)[O-])c1 (stereo not shown) [Nicardipine, nicardipine] | only slightly soluble | – | – | –
2 | COC(=O)C1=C(C)NC(C)=C(C(=O)OCCN(C)Cc2ccccc2)C1c1cccc([N+](=O)[O-])c1 (racemic) [nicardipine HCl, (±)-2-(benzyl-methylamino) ethyl methyl 1,4-dihydro-2,6-dimethyl-4-(m-nitrophenyl)-3,5-pyridinedicarboxylate monohydrochloride] | – | very pronounced drug loss | Significant loss in product potency | ~7.2
